{"source": "PubChem BioAssay (NCI)", "assay_in_all_cases": "NCI tumour cell line growth inhibition, 48 h", "key": {"HS 578T breast": {"tested_on": "HS 578T breast"}, "HCC-2998 colon": {"tested_on": "HCC-2998 colon"}, "SK-OV-3 ovarian": {"tested_on": "SK-OV-3 ovarian"}, "HL-60(TB) leukemia": {"tested_on": "HL-60(TB) leukemia"}, "NCI-H522 lung": {"tested_on": "NCI-H522 lung"}, "KM12 colon": {"tested_on": "KM12 colon"}, "M14 melanoma": {"tested_on": "M14 melanoma"}, "IGROV1 ovarian": {"tested_on": "IGROV1 ovarian"}, "MDA-MB-435": {"tested_on": "MDA-MB-435"}, "U251 CNS": {"tested_on": "U251 CNS"}, "SK-MEL-2 melanoma": {"tested_on": "SK-MEL-2 melanoma"}, "CCRF-CEM leukemia": {"tested_on": "CCRF-CEM leukemia"}, "HOP-92 NSCLC": {"tested_on": "HOP-92 NSCLC"}, "CAKI-1 renal": {"tested_on": "CAKI-1 renal"}, "OVCAR-4 ovarian": {"tested_on": "OVCAR-4 ovarian"}, "SF-268 CNS": {"tested_on": "SF-268 CNS"}, "SR leukemia": {"tested_on": "SR leukemia"}, "K-562 leukemia": {"tested_on": "K-562 leukemia"}, "ACHN renal": {"tested_on": "ACHN renal"}, "A498 renal": {"tested_on": "A498 renal"}, "DU-145 prostate": {"tested_on": "DU-145 prostate"}, "HCT-15 colon": {"tested_on": "HCT-15 colon"}, "T-47D breast": {"tested_on": "T-47D breast"}, "786-0 renal": {"tested_on": "786-0 renal"}, "COLO 205 colon": {"tested_on": "COLO 205 colon"}, "HCT-116 colon": {"tested_on": "HCT-116 colon"}, "NCI-H226 lung": {"tested_on": "NCI-H226 lung"}, "NCI/ADR-RES ovarian": {"tested_on": "NCI/ADR-RES ovarian"}, "MALME-3M melanoma": {"tested_on": "MALME-3M melanoma"}, "UACC-257 melanoma": {"tested_on": "UACC-257 melanoma"}, "SF-295 CNS": {"tested_on": "SF-295 CNS"}, "UO-31 renal": {"tested_on": "UO-31 renal"}, "A549 NSCLC": {"tested_on": "A549 NSCLC"}, "TK-10 renal": {"tested_on": "TK-10 renal"}, "HOP-62 NSCLC": {"tested_on": "HOP-62 NSCLC"}, "EKVX NSCLC": {"tested_on": "EKVX NSCLC"}, "OVCAR-3 ovarian": {"tested_on": "OVCAR-3 ovarian"}, "NCI-H460 lung": {"tested_on": "NCI-H460 lung"}, "OVCAR-5 ovarian": {"tested_on": "OVCAR-5 ovarian"}, "MOLT-4 leukemia": {"tested_on": "MOLT-4 leukemia"}, "LOX IMVI melanoma": {"tested_on": "LOX IMVI melanoma"}, "OVCAR-8 ovarian": {"tested_on": "OVCAR-8 ovarian"}, "PC-3 prostate": {"tested_on": "PC-3 prostate"}, "SK-MEL-5 melanoma": {"tested_on": "SK-MEL-5 melanoma"}, "SK-MEL-28 melanoma": {"tested_on": "SK-MEL-28 melanoma"}, "MDA-N": {"tested_on": "MDA-N"}, "BT-549 breast": {"tested_on": "BT-549 breast"}, "NCI-H23 lung": {"tested_on": "NCI-H23 lung"}, "HT29 colon": {"tested_on": "HT29 colon"}, "MDA-MB-231 breast": {"tested_on": "MDA-MB-231 breast"}, "RXF 393 renal": {"tested_on": "RXF 393 renal"}, "SNB-75 CNS": {"tested_on": "SNB-75 CNS"}, "RPMI-8226 leukemia": {"tested_on": "RPMI-8226 leukemia"}, "MCF7 breast": {"tested_on": "MCF7 breast"}, "SN12C renal": {"tested_on": "SN12C renal"}, "SW-620 colon": {"tested_on": "SW-620 colon"}, "SNB-19 CNS": {"tested_on": "SNB-19 CNS"}, "UACC-62 melanoma": {"tested_on": "UACC-62 melanoma"}}, "note": "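In this assay, cells in 96-well plates receive the compound at five concentrations for 48 hours. Endpoints are linearly interpolated between the surrounding concentrations. GI50 = concentration required for 50% inhibition of growth. TGI is the concentration that stops growth completely.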", "data": [{"smiles": "CCCCOC(=O)CC(CC(=O)OCCCC)(OC(C)=O)C(=O)OCCCC", "values": [{"measurement": "TGI", "setting": "HS 578T breast", "value": "> 200", "unit": "µM"}, {"measurement": "TGI", "setting": "HCC-2998 colon", "value": "> 200", "unit": "µM"}, {"measurement": "TGI", "setting": "SK-OV-3 ovarian", "value": "> 200", "unit": "µM"}, {"measurement": "GI50", "setting": "HL-60(TB) leukemia", "value": 49.1, "unit": "µM"}, {"measurement": "TGI", "setting": "HL-60(TB) leukemia", "value": "> 179", "unit": "µM"}, {"measurement": "TGI", "setting": "NCI-H522 lung", "value": "> 200", "unit": "µM"}, {"measurement": "TGI", "setting": "KM12 colon", "value": "> 200", "unit": "µM"}, {"measurement": "TGI", "setting": "M14 melanoma", "value": "> 200", "unit": "µM"}, {"measurement": "TGI", "setting": "IGROV1 ovarian", "value": "> 200", "unit": "µM"}, {"measurement": "TGI", "setting": "MDA-MB-435", "value": "> 200", "unit": "µM"}, {"measurement": "GI50", "setting": "U251 CNS", "value": 92.6, "unit": "µM"}, {"measurement": "TGI", "setting": "U251 CNS", "value": "> 200", "unit": "µM"}, {"measurement": "TGI", "setting": "SK-MEL-2 melanoma", "value": "> 200", "unit": "µM"}, {"measurement": "TGI", "setting": "CCRF-CEM leukemia", "value": "> 200", "unit": "µM"}, {"measurement": "TGI", "setting": "HOP-92 NSCLC", "value": "> 200", "unit": "µM"}, {"measurement": "TGI", "setting": "CAKI-1 renal", "value": "> 200", "unit": "µM"}, {"measurement": "GI50", "setting": "OVCAR-4 ovarian", "value": 69.1, "unit": "µM"}, {"measurement": "TGI", "setting": "OVCAR-4 ovarian", "value": "> 200", "unit": "µM"}, {"measurement": "TGI", "setting": "SF-268 CNS", "value": "> 200", "unit": "µM"}, {"measurement": "GI50", "setting": "SR leukemia", "value": 32.2, "unit": "µM"}, {"measurement": "TGI", "setting": "SR leukemia", "value": "> 50.7", "unit": "µM"}, {"measurement": "GI50", "setting": "K-562 leukemia", "value": 53.2, "unit": "µM"}, {"measurement": "TGI", "setting": "K-562 leukemia", "value": "> 200", "unit": "µM"}, {"measurement": "TGI", "setting": "ACHN renal", "value": "> 200", "unit": "µM"}, {"measurement": "TGI", "setting": "A498 renal", "value": "> 200", "unit": "µM"}, {"measurement": "TGI", "setting": "DU-145 prostate", "value": "> 200", "unit": "µM"}, {"measurement": "TGI", "setting": "HCT-15 colon", "value": "> 200", "unit": "µM"}, {"measurement": "GI50", "setting": "T-47D breast", "value": 26.4, "unit": "µM"}, {"measurement": "TGI", "setting": "T-47D breast", "value": "> 200", "unit": "µM"}, {"measurement": "TGI", "setting": "786-0 renal", "value": "> 200", "unit": "µM"}, {"measurement": "TGI", "setting": "COLO 205 colon", "value": "> 200", "unit": "µM"}, {"measurement": "GI50", "setting": "HCT-116 colon", "value": 70.9, "unit": "µM"}, {"measurement": "TGI", "setting": "HCT-116 colon", "value": "> 200", "unit": "µM"}, {"measurement": "GI50", "setting": "NCI-H226 lung", "value": 55.6, "unit": "µM"}, {"measurement": "TGI", "setting": "NCI-H226 lung", "value": 198, "unit": "µM"}, {"measurement": "GI50", "setting": "NCI/ADR-RES ovarian", "value": 74.2, "unit": "µM"}, {"measurement": "TGI", "setting": "NCI/ADR-RES ovarian", "value": "> 200", "unit": "µM"}, {"measurement": "TGI", "setting": "MALME-3M melanoma", "value": "> 200", "unit": "µM"}, {"measurement": "TGI", "setting": "UACC-257 melanoma", "value": "> 200", "unit": "µM"}, {"measurement": "GI50", "setting": "SF-295 CNS", "value": 54.3, "unit": "µM"}, {"measurement": "TGI", "setting": "SF-295 CNS", "value": "> 200", "unit": "µM"}, {"measurement": "TGI", "setting": "UO-31 renal", "value": 98.2, "unit": "µM"}, {"measurement": "TGI", "setting": "A549 NSCLC", "value": "> 200", "unit": "µM"}, {"measurement": "TGI", "setting": "TK-10 renal", "value": "> 200", "unit": "µM"}, {"measurement": "TGI", "setting": "HOP-62 NSCLC", "value": "> 200", "unit": "µM"}, {"measurement": "TGI", "setting": "EKVX NSCLC", "value": "> 200", "unit": "µM"}, {"measurement": "TGI", "setting": "OVCAR-3 ovarian", "value": "> 200", "unit": "µM"}, {"measurement": "TGI", "setting": "NCI-H460 lung", "value": "> 200", "unit": "µM"}, {"measurement": "TGI", "setting": "OVCAR-5 ovarian", "value": "> 200", "unit": "µM"}, {"measurement": "GI50", "setting": "MOLT-4 leukemia", "value": 24.8, "unit": "µM"}, {"measurement": "TGI", "setting": "MOLT-4 leukemia", "value": "> 200", "unit": "µM"}, {"measurement": "GI50", "setting": "LOX IMVI melanoma", "value": 40.5, "unit": "µM"}, {"measurement": "TGI", "setting": "LOX IMVI melanoma", "value": "> 200", "unit": "µM"}, {"measurement": "TGI", "setting": "OVCAR-8 ovarian", "value": "> 200", "unit": "µM"}, {"measurement": "GI50", "setting": "PC-3 prostate", "value": 86.5, "unit": "µM"}, {"measurement": "TGI", "setting": "PC-3 prostate", "value": "> 200", "unit": "µM"}, {"measurement": "GI50", "setting": "SK-MEL-5 melanoma", "value": 28.4, "unit": "µM"}, {"measurement": "TGI", "setting": "SK-MEL-5 melanoma", "value": "> 200", "unit": "µM"}, {"measurement": "TGI", "setting": "SK-MEL-28 melanoma", "value": "> 200", "unit": "µM"}, {"measurement": "TGI", "setting": "MDA-N", "value": "> 200", "unit": "µM"}, {"measurement": "TGI", "setting": "BT-549 breast", "value": "> 200", "unit": "µM"}, {"measurement": "TGI", "setting": "NCI-H23 lung", "value": "> 200", "unit": "µM"}, {"measurement": "GI50", "setting": "HT29 colon", "value": 68.8, "unit": "µM"}, {"measurement": "TGI", "setting": "HT29 colon", "value": "> 200", "unit": "µM"}, {"measurement": "TGI", "setting": "MDA-MB-231 breast", "value": "> 200", "unit": "µM"}, {"measurement": "GI50", "setting": "RXF 393 renal", "value": 96, "unit": "µM"}, {"measurement": "TGI", "setting": "RXF 393 renal", "value": "> 124", "unit": "µM"}, {"measurement": "TGI", "setting": "SNB-75 CNS", "value": 56.4, "unit": "µM"}, {"measurement": "GI50", "setting": "RPMI-8226 leukemia", "value": 29.2, "unit": "µM"}, {"measurement": "TGI", "setting": "RPMI-8226 leukemia", "value": 123, "unit": "µM"}, {"measurement": "TGI", "setting": "MCF7 breast", "value": "> 200", "unit": "µM"}, {"measurement": "TGI", "setting": "SN12C renal", "value": "> 200", "unit": "µM"}, {"measurement": "TGI", "setting": "SW-620 colon", "value": "> 200", "unit": "µM"}, {"measurement": "TGI", "setting": "SNB-19 CNS", "value": "> 200", "unit": "µM"}, {"measurement": "TGI", "setting": "UACC-62 melanoma", "value": "> 200", "unit": "µM"}]}]}
